“Also recorded” adds a separate entry of the source.
Key:
[1] = system: normotensive anaesthetized rats; assay: Effect on blood pressure after single i.v. administration in normotensive anaesthetized rats; assay type: in vivo, rat; conditions: 2 mg/kg i.v.
Procedure: The experiments were performed to our previously reported method.
Identified compounds 9 and 10 with favorable α1B/α1D profile and acceptable metabolic stability were selected for in vivo tests to evaluate their influence on blood pressure. Hypotensive activity was determined after one time i.v. administration to normotensive anaesthetized rats at single doses of 2 mg/kg according to our previously reported method.
The experiments were carried out on male Wistar rats (body weight 200–250 g). The animals were housed in pairs in plastic cages in constant-temperature facilities exposed to a 12:12 h light/dark cycle; water and food were available ad libitum. Experimental groups consisted of 6 animals each. All experiments were conducted in accordance with the NIH Guide for Care and Use of Laboratory Animals and were approved by the Animal Use and Care Committee of the Jagiellonian University (2012, Kraków, Poland).
The normotensive rats were anesthetized with thiopental (70 mg/kg) by i.p. injection. The left carotid artery was cannulated with polyethylene tubing filled with heparin solution in saline to facilitate pressure measurements using PowerLab Apparatus (ADInstruments, Sydney, Australia). Blood pressure was measured: before administration of the compounds—time 0 min (control pressure), and 60 min thereafter. For each compound, studies were performed in the dose of 2 mg/kg b.w. Compounds were dissolved in water and administered intravenously. Initial blood pressure before administration of the tested compounds in all groups was similar.
Statistical calculations were carried out with the GraphPadPrism 6 program (GraphPad Software). Results are given as the arithmetic means with standard deviation (SD). The statistical significance was calculated using a one-way ANOVA and posthoc Bonfferoni Test in comparison to 0.9% NaCl. Differences were considered statistically significant at: * p ≤ 0.05, ** p ≤ 0.01, *** p ≤ 0.001.

α1B-ARs = target: T1, α1B-ARs (Homo sapiens, UniProt P35368); assay: Intrinsic activity at α1B-ARs, aequorin calcium mobilization luminescence; assay type: cell-based; design: key to α1B Profile: ANT—antagonist; AGO—agonist; conditions: for IC50: antagonist mode, three independent experiments; for α1B Profile: functional profile
T1 sequence (P35368 1-520): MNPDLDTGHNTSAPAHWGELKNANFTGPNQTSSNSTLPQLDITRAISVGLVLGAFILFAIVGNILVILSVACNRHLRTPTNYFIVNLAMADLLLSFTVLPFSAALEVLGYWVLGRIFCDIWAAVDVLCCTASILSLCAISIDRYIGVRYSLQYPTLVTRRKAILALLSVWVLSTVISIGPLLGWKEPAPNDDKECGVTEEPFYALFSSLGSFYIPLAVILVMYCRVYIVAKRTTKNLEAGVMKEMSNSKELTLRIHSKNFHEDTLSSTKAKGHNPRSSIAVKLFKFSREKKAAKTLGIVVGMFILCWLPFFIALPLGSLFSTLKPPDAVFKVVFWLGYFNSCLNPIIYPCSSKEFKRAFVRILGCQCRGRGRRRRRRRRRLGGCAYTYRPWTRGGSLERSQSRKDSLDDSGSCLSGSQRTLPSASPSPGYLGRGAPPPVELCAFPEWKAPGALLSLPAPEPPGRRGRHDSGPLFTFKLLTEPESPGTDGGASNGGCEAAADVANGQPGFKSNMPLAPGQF
Procedure: The intrinsic activity at α1A-ARs of the selected compounds was assessed by fluorescence detection (Invitrogen, Thermo Fisher Scientific, Carlsbad, CA, USA) of β-lactamase reporter genes using a FRET-enabled substrate. The intrinsic activity at α1B-ARs and α1D-ARs was determined by luminescence detection (PerkinElmer, Zaventem, Belgium) of calcium mobilization using the recombinant-expressed jellyfish photoprotein (Aequorin).
Intrinsic activity assay to α1B- and α1D-ARs was performed according to the manufacturer of the ready-to-use cells with stable expression of the α1B-adrenoreceptors and α1D-adrenoreceptors, respectively (PerkinElmer, Zaventem, Belgium). For measurement, cells (frozen, ready to use) were thawed and resuspended in 10 mL of assay buffer containing 5 µM coelenterazine h. This cells suspension was put in a 10 mL Falcon tube, fixed onto a rotating heel, and incubated for overnight at rt in the dark (8 rpm; 45° angle). Cells were diluted with Assay Buffer to 5000 cells/20 µL. Agonistic ligands 2 × (50 µL/well), diluted in Assay Buffer, were prepared in ½ white polystyrene area plates, and the cell suspension was dispensed in 50 µL volume on the ligands using the injector. The light emitted was recorded for 20 s. Cells with antagonist were incubated for 15 min at room temperature. Thereafter, 50 µL of agonist (3 × EC80 final concentration) was injected into the mix of cells and antagonist and the light emitted was recorded for 20 s.

α1A-ARs = target: T2, α1A-ARs (Homo sapiens, UniProt P35348); assay: Intrinsic activity at α1A-ARs, β-lactamase reporter gene, FRET substrate; assay type: cell-based; design: key to α1A Profile: ANT—antagonist; AGO—agonist; conditions: for IC50: antagonist mode, three independent experiments; for α1A Profile: functional profile
T2 sequence (P35348 1-466): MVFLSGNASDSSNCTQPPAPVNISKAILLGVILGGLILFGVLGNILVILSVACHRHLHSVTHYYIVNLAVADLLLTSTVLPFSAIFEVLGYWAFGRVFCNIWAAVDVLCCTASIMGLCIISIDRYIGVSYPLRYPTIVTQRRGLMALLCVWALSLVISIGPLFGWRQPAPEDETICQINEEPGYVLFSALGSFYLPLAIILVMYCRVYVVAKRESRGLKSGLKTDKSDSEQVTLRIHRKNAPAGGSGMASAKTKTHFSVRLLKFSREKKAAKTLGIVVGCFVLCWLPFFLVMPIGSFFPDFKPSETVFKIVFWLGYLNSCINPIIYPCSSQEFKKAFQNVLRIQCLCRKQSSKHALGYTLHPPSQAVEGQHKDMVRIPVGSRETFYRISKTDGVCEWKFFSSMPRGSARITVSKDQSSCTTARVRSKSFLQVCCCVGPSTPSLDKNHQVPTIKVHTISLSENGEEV
Procedure: The intrinsic activity at α1A-ARs of the selected compounds was assessed by fluorescence detection (Invitrogen, Thermo Fisher Scientific, Carlsbad, CA, USA) of β-lactamase reporter genes using a FRET-enabled substrate. […] Intrinsic activity assay was performed according to the manufacturer of the assay kit (Invitrogen, Thermo Fisher Scientific corporation, Carlsbad, CA, USA). The cells were harvested and suspended in Assay Medium to a density of 312,500 cells/mL. Of the cell suspension, 32 µL per well was added to the Test Compound wells, the Unstimulated Control wells, and Stimulated Control wells and incubated per 16–24 h. […] Then, both the agonist and the antagonist plate were incubated in a humidified 37 °C/5% CO2 incubator for 5 h. After the incubation 8 µL of LiveBLAzer™-FRET B/G Substrate Mixture (CCF4-AM, Thermo Fisher Scientific corporation) was loaded cells in the absence of direct strong lighting, covered, and incubated at room temperature for 2 h.

**Q.** What does the source list for `O=S(=O)(NCC1CCN(CCOc2ccccc2OCC(F)(F)F)CC1)c1cccc(Cl)c1F` [Compound 9, 3-Chloro-2-fluoro-N-[(1-{2-[(2,2,2-trifluoroethoxy)phenoxy]ethyl}piperidin-4-yl)methyl]benzenesulfonamide]?
**A.** effect on blood pressure, in words (significance vs 0.9% NaCl) [1]: did not decrease systolic and diastolic blood pressure; also recorded: insignificantly; IC50 (α1B-ARs): 3.9 nM; α1B Profile (α1B-ARs): ANT; IC50 (α1A-ARs): 0.8 nM; EC50 (α1A-ARs; antagonist, in abstract): 0.8 nM; α1A Profile (α1A-ARs): ANT; functional preference over the α1B subtype (α1A-ARs; α1B vs α1A functional potency): 5 fold

**Q.** Which results are given for `O=S(=O)(NCC1CCN(CCOc2ccccc2OCC(F)(F)F)CC1)c1cc(Cl)ccc1F` [Compound 10, 5-Chloro-2-fluoro-N-[(1-{2-[(2,2,2-trifluoroethoxy)phenoxy]ethyl}piperidin-4-yl)methyl]benzenesulfonamide]?
**A.** effect on blood pressure, in words (significance vs 0.9% NaCl) [1]: statistically significant drop in systolic blood pressure was observed from 30 min after administration; IC50 (α1B-ARs): 10.1 nM; α1B Profile (α1B-ARs): ANT; IC50 (α1A-ARs): 2.1 nM; α1A Profile (α1A-ARs): ANT

**Q.** Which “effect on blood pressure, in words (significance vs 0.9% NaCl)” value [1] does the source give for `CCOc1ccccc1OCCN[C@H](C)Cc1ccc(OC)c(S(N)(=O)=O)c1` [tamsulosin, reference compound] here?
**A.** significantly through whole period of observation

**Q.** What about the “decrease of DBP” value ([1]; over 60 min) of the same compound?
**A.** 13.3–16.6 mmHg

**Q.** And the IC50 (α1B-ARs)?
**A.** 1.3 nM

**Q.** What about the “α1B Profile” value (α1B-ARs) of the same compound?
**A.** ANT

**Q.** What about the “α1A Profile” value (α1A-ARs) of the same compound?
**A.** ANT

Reference: article PMC6225212, “Synthesis and Pharmacological Evaluation of Novel Silodosin-Based Arylsulfonamide Derivatives as α1A/α1D-Adrenergic Receptor Antagonist with Potential Uroselective Profile” (Molecules : A Journal of Synthetic Chemistry and Natural …, 2018)
